Tests used:
[1] = tested on: Puccinia recondita f. sp. tritici; experiment: Fungicidal activity against Puccinia recondita f. sp. tritici / wheat / leaf disc preventative (brown rust); assay type: in vivo; settings: foliar, 200 ppm in the applied formulation, wheat leaf segments cv. Kanzler, preventative (inoculated 1 day after application), assessed 7 to 9 days after application, read-out: disease control compared to untreated control leaf disks
Procedure: (§1) Leaf disks or leaf segments of various plant species are cut from plants grown in a greenhouse. The cut leaf disks or segments are placed in multiwell plates (24-well format) onto water agar. The leaf disks are sprayed with a test solution before (preventative) or after (curative) inoculation. Compounds to be tested are prepared as DMSO solutions (max. 10 mg/ml) which are diluted to the appropriate concentration with 0.025% Tween20 just before spraying. The inoculated leaf disks or segments are incubated under defined conditions (temperature, relative humidity, light, etc.) according to the respective test system. A single evaluation of disease level is carried out 3 to 14 days after inoculation, depending on the pathosystem. Percent disease control relative to the untreated check leaf disks or segments is then calculated. General Examples of Liquid Culture Tests in Well Plates:
Example 1: Fungicidal Activity Against Puccinia recondita f. sp. tritici/Wheat/Leaf Disc Preventative (Brown Rust)
Wheat leaf segments cv. Kanzler were placed on agar in multiwell plates (24-well format) and sprayed with the formulated test compound diluted in water. The leaf disks were inoculated with a spore suspension of the fungus 1 day after application. The inoculated leaf segments were incubated at 19C and 75% relative humidity (rh) under a light regime of 12 hours light/12 hours darkness in a climate cabinet and the activity of a compound was assessed as percent disease control compared to untreated when an appropriate level of disease damage appears in untreated check leaf segments (7 to 9 days after application).
(§2) The following compounds at 200 ppm in the applied formulation give at least 80% disease control in this test when compared to untreated control leaf disks under the same conditions, which show extensive disease development.

[2] = tested on: Puccinia recondita f. sp. tritici; experiment: Fungicidal activity against Puccinia recondita f. sp. tritici / wheat / leaf disc curative (brown rust); assay type: in vivo; settings: foliar, 200 ppm in the applied formulation, wheat leaf segments cv. Kanzler, curative (applied 1 day after inoculation), assessed 6 to 8 days after application, read-out: disease control compared to untreated control leaf disks
Procedure: as §1
Example 2: Fungicidal Activity Against Puccinia recondita f. sp. Tritici/Wheat/Leaf Disc Curative (Brown Rust)
Wheat leaf segments cv. Kanzler are placed on agar in multiwell plates (24-well format). The leaf segments are then inoculated with a spore suspension of the fungus. Plates were stored in darkness at 19° C. and 75% relative humidity. The formulated test compound diluted in water was applied 1 day after inoculation. The leaf segments were incubated at 19° C. and 75% relative humidity under a light regime of 12 hours light/12 hours darkness in a climate cabinet and the activity of a compound was assessed as percent disease control compared to untreated when an appropriate level of disease damage appears in untreated check leaf segments (6 to 8 days after application).
as §2

Phakopsora pachyrhizi = experiment: Fungicidal activity against Phakopsora pachyrhizi / soybean / leaf disc preventative (Asian soybean rust); assay type: in vivo; settings: foliar, 200 ppm in the applied formulation, soybean leaf disks, preventative (inoculated one day after application), assessed 12 to 14 days after application, read-out: disease control compared to untreated control leaf disks
Procedure: as §1
Example 3: Fungicidal Activity Against Phakopsora pachyrhizi/Soybean/Leaf Disc Preventative (Asian Soybean Rust)
Soybean leaf disks are placed on water agar in multiwell plates (24-well format) and sprayed with the formulated test compound diluted in water. One day after application leaf discs are inoculated by spraying a spore suspension on the lower leaf surface. After an incubation period in a climate cabinet of 24-36 hours in darkness at 20° C. and 75% rh leaf disc are kept at 20° C. with 12 h light/day and 75% rh. The activity of a compound is assessed as percent disease control compared to untreated when an appropriate level of disease damage appears in untreated check leaf disks (12 to 14 days after application).
as §2

[3] = tested on: Glomerella laqenarium (Colletotrichum lagenarium); experiment: Fungicidal activity against Glomerella lagenarium (Colletotrichum lagenarium) liquid culture / cucumber / preventative (anthracnose); assay type: cell-based; settings: Colletotrichum orbiculare; 20 ppm in the applied formulation; liquid culture in PDB, 24° C., 3 to 4 days after application; read-out: disease control compared to untreated control (inhibition of growth measured photometrically)
Procedure: Mycelia fragments or conidia suspensions of a fungus prepared either freshly from liquid cultures of the fungus or from cryogenic storage, are directly mixed into nutrient broth. DMSO solutions of the test compound (max. 10 mg/ml) are diluted with 0.025% Tween20 by a factor of 50 and 10 μl of this solution is pipetted into a microtiter plate (96-well format). The nutrient broth containing the fungal spores/mycelia fragments is then added to give an end concentration of the tested compound. The test plates are incubated in the dark at 24° C. and 96% relative humidity. The inhibition of fungal growth is determined photometrically after 2 to 7 days, depending on the pathosystem, and percent antifungal activity relative to the untreated check is calculated.
Example 4: Fungicidal Activity Against Glomerella laqenarium (Colletotrichum lagenarium) Liquid Culture/Cucumber/Preventative (Anthracnose)
Conidia of the fungus from cryogenic storage are directly mixed into nutrient broth (PDB—potato dextrose broth). After placing a (DMSO) solution of test compound into a microtiter plate (96-well format), the nutrient broth containing the fungal spores is added. The test plates are incubated at 24° C. and the inhibition of growth is measured photometrically 3 to 4 days after application.
The following compounds at 20 ppm in the applied formulation give at least 80% disease control in this test when compared to untreated control under the same conditions, which show extensive disease development.

CCOCCCNC(=O)c1ccc(-c2noc(C(F)(F)F)n2)cc1 [Compound 3a.22, N-(3-ethoxypropyl)-4-[5-(trifluoromethyl)-1,2,4-oxadiazol-3-yl]benzamide]
≥ 80%: pest or weed control at 200 ppm [1] | pest or weed control at 200 ppm [2] | pest or weed control at 200 ppm (Phakopsora pachyrhizi) | inhibition at 20 ppm [3]

O=C(NCCCCO)c1ccc(-c2noc(C(F)(F)F)n2)cc1 [Compound 3a.24, N-(4-hydroxybutyl)-4-[5-(trifluoromethyl)-1,2,4-oxadiazol-3-yl]benzamide]
≥ 80%: pest or weed control at 200 ppm [1] | pest or weed control at 200 ppm [2] | pest or weed control at 200 ppm (Phakopsora pachyrhizi) | inhibition at 20 ppm [3]

CC(C)(O)CNC(=O)c1ccc(-c2noc(C(F)(F)F)n2)cc1 [Compound 3a.27, N-(2-hydroxy-2-methyl-propyl)-4-[5-(trifluoromethyl)-1,2,4-oxadiazol-3-yl]benzamide]
≥ 80%: pest or weed control at 200 ppm [1] | pest or weed control at 200 ppm [2] | pest or weed control at 200 ppm (Phakopsora pachyrhizi) | inhibition at 20 ppm [3]

C=CCN(CC)C(=O)c1ccc(-c2noc(C(F)(F)F)n2)cc1 [Compound 3a.28, N-allyl-N-ethyl-4-[5-(trifluoromethyl)-1,2,4-oxadiazol-3-yl]benzamide]
≥ 80%: pest or weed control at 200 ppm [1] | pest or weed control at 200 ppm [2] | pest or weed control at 200 ppm (Phakopsora pachyrhizi) | inhibition at 20 ppm [3]

CCN(CC)C(=O)c1ccc(-c2noc(C(F)(F)F)n2)cc1 [Compound 3a.30, N,N-diethyl-4-[5-(trifluoromethyl)-1,2,4-oxadiazol-3-yl]benzamide]
≥ 80%: pest or weed control at 200 ppm [1] | pest or weed control at 200 ppm [2] | pest or weed control at 200 ppm (Phakopsora pachyrhizi) | inhibition at 20 ppm [3]

C=C(C)CN(CC)C(=O)c1ccc(-c2noc(C(F)(F)F)n2)cc1 [Compound 3a.31, N-ethyl-N-(2-methylallyl)-4-[5-(trifluoromethyl)-1,2,4-oxadiazol-3-yl]benzamide]
≥ 80%: pest or weed control at 200 ppm [1] | pest or weed control at 200 ppm [2] | pest or weed control at 200 ppm (Phakopsora pachyrhizi) | inhibition at 20 ppm [3]

CC(C)(C)NC(=O)c1ccc(-c2noc(C(F)(F)F)n2)cc1 [Compound 3a.32, N-tert-butyl-4-[5-(trifluoromethyl)-1,2,4-oxadiazol-3-yl]benzamide]
≥ 80%: pest or weed control at 200 ppm [1] | pest or weed control at 200 ppm [2] | pest or weed control at 200 ppm (Phakopsora pachyrhizi) | inhibition at 20 ppm [3]

CCCN(C)C(=O)c1ccc(-c2noc(C(F)(F)F)n2)cc1 [Compound 3a.33, N-methyl-N-propyl-4-[5-(trifluoromethyl)-1,2,4-oxadiazol-3-yl]benzamide]
≥ 80%: pest or weed control at 200 ppm [1] | pest or weed control at 200 ppm [2] | pest or weed control at 200 ppm (Phakopsora pachyrhizi) | inhibition at 20 ppm [3]

CCN(C(=O)c1ccc(-c2noc(C(F)(F)F)n2)cc1)C(C)C [Compound 3a.34, N-ethyl-N-isopropyl-4-[5-(trifluoromethyl)-1,2,4-oxadiazol-3-yl]benzamide]
≥ 80%: pest or weed control at 200 ppm [1] | pest or weed control at 200 ppm [2] | pest or weed control at 200 ppm (Phakopsora pachyrhizi) | inhibition at 20 ppm [3]

CN(C(=O)c1ccc(-c2noc(C(F)(F)F)n2)cc1)C(C)(C)C [Compound 3a.35, N-tert-butyl-N-methyl-4-[5-(trifluoromethyl) 1,2,4-oxadiazol-3-yl]benzamide]
≥ 80%: pest or weed control at 200 ppm [1] | pest or weed control at 200 ppm [2] | pest or weed control at 200 ppm (Phakopsora pachyrhizi) | inhibition at 20 ppm [3]

CCCCN(C)C(=O)c1ccc(-c2noc(C(F)(F)F)n2)cc1 [Compound 3a.36, N-butyl-N-methyl-4-[5-(trifluoromethyl)-1,2,4-oxadiazol-3-yl]benzamide]
≥ 80%: pest or weed control at 200 ppm [1] | pest or weed control at 200 ppm [2] | pest or weed control at 200 ppm (Phakopsora pachyrhizi) | inhibition at 20 ppm [3]

COCC(C)NC(=O)c1ccc(-c2noc(C(F)(F)F)n2)cc1 (centres unmarked) [Compound 3a.37, N-(2-methoxy-1-methyl-ethyl)-4-[5-(trifluoromethyl)-1,2,4-oxadiazol-3-yl]benzamide]
≥ 80%: pest or weed control at 200 ppm [1] | pest or weed control at 200 ppm [2] | pest or weed control at 200 ppm (Phakopsora pachyrhizi) | inhibition at 20 ppm [3]

CC(C)CCNC(=O)c1ccc(-c2noc(C(F)(F)F)n2)cc1 [Compound 3a.38, N-isopentyl-4-[5-(trifluoromethyl)-1,2,4-oxadiazol-3-yl]benzamide]
≥ 80%: pest or weed control at 200 ppm [1] | pest or weed control at 200 ppm [2] | pest or weed control at 200 ppm (Phakopsora pachyrhizi) | inhibition at 20 ppm [3]

CC(C)OCCNC(=O)c1ccc(-c2noc(C(F)(F)F)n2)cc1 [Compound 3a.40, N-(2-isopropoxyethyl)-4-[5-(trifluoromethyl)-1,2,4-oxadiazol-3-yl]benzamide]
≥ 80%: pest or weed control at 200 ppm [1] | pest or weed control at 200 ppm [2] | pest or weed control at 200 ppm (Phakopsora pachyrhizi) | inhibition at 20 ppm [3]

C#CCN(C)C(=O)c1ccc(-c2noc(C(F)(F)F)n2)cc1 [Compound 3a.41, N-methyl-N-prop-2-ynyl-4-[5-(trifluoromethyl)-1,2,4-oxadiazol-3-yl]benzamide]
≥ 80%: pest or weed control at 200 ppm [1] | pest or weed control at 200 ppm [2] | pest or weed control at 200 ppm (Phakopsora pachyrhizi) | inhibition at 20 ppm [3]

CN(CCOC(F)F)C(=O)c1ccc(-c2noc(C(F)(F)F)n2)cc1 [Compound 3a.44, N-[2-(difluoromethoxy)ethyl]-N-methyl-4-[5-(trifluoromethyl)-1,2,4-oxadiazol-3-yl]benzamide]
≥ 80%: pest or weed control at 200 ppm [1] | pest or weed control at 200 ppm [2] | pest or weed control at 200 ppm (Phakopsora pachyrhizi) | inhibition at 20 ppm [3]

CCC(C)NC(=O)c1ccc(-c2noc(C(F)(F)F)n2)cc1F (centres unmarked) [Compound 3b.10, 2-fluoro-N-sec-butyl-4-[5-(trifluoromethyl)-1,2,4-oxadiazol-3-yl]benzamide]
≥ 80%: pest or weed control at 200 ppm [1] | pest or weed control at 200 ppm [2] | pest or weed control at 200 ppm (Phakopsora pachyrhizi) | inhibition at 20 ppm [3]
